Drawing on patent publication US20240228458A1, “PYRIMIDINE DERIVATIVE HAVING PROTEIN KINASE INHIBITORY ACTIVITY, AND THERAPEUTIC PHARMACEUTICAL COMPOSITION COMPRISING SAME” (THERAPEX CO., LTD., priority 2021, published 2024), this text covers GI50 for 19 molecules.

Holding throughout (type): cell-based
Test [1] has as its system Ba/F3 cells expressing L858R/T790M/C797S (EGFR-LTC). The experiment in a line: Growth inhibition (GI50) of Ba/F3 cells expressing L858R/T790M/C797S (EGFR-LTC), Celltiter glo. To be noted: Mus musculus, BaF3, 72 h. Summed up: (§1)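 We seed Ba/F3 transfectants at 100,000 cells/ml, dose them with ten 4-fold compound dilutions (2 mM top stock, 0.5% DMSO) after 4 h, and culture for 72 h at 37 °C. CellTiter-Glo then reports viable cell number, from which the GI50 is fitted.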
On the technique in general: Cellular ATP, detected with luciferase, serves as a proxy for viable cell number.

The subject of test [2] is Ba/F3 cells expressing EGFR-wt. The experiment in a line: Growth inhibition (GI50) of Ba/F3 cells expressing EGFR-wt, Celltiter glo. To be noted: Mus musculus, BaF3, 72 h. A digest of the protocol: as §1
For another test, the system named is parental Ba/F3 cell line. In words: Growth inhibition (GI50) of the parental Ba/F3 cell line (not introduced with EGFR variants), Celltiter glo. The note with it: Mus musculus, BaF3, 72 h, parental Ba/F3 cells. A digest of the protocol:
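Parental Ba/F3 cells (100,000 cells/ml) were treated with 10-point, 4-fold compound dilutions (0.5% DMSO; top stock 2 mM) for 72 h at 37 °C, 5% CO2. Viability was read by CellTiter-Glo; GI50 is the concentration (μM) giving 50% growth inhibition.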

Test [3] relates to Ba/F3 cells expressing del19/T790M/C797S (EGFR-DTC). In words: Growth inhibition (GI50) of Ba/F3 cells expressing del19/T790M/C797S (EGFR-DTC), Celltiter glo. The note with it: Mus musculus, BaF3, 72 h. A digest of the protocol:
as §1

For orientation: GI50 means the concentration that inhibits growth by half.

Each structure is given as a SMILES string.

Regarding `COc1nc(N2CCN(C3CCN(C)CC3)CC2)ccc1Nc1ncc(Br)c(Nc2ccc(F)cc2NS(C)(=O)=O)n1` [Example 36, N-(2-((5-bromo-2-((2-methoxy-6-(4-(1-methylpiperidin-4-yl)piperazin-1-yl)pyridin-3-yl)amino)pyrimidin-4-yl)amino)-5-fluorophenyl)methanesulfonamide], the GI50 in test [1] fell in the range of 0.1 to 0.5 µM; in test [2], 0.5 to 2 µM; in the test with parental Ba/F3 cell line it was 2 to 10 µM; in test [3], 0.1 to 0.5 µM.

Regarding `COc1cc(N2CCC(N3CCC(N(C)C)C3)CC2)c(C)cc1Nc1ncc(Br)c(Nc2ccc(F)cc2NS(C)(=O)=O)n1` (stereo not shown) [Example 40, N-(2-((5-bromo-2-((4-(4-(3-(dimethylamino)pyrrolidin-1-yl)piperidin-1-yl)-2-methoxy-5-methylphenyl)amino)pyrimidin-4-yl)amino)-5-fluorophenyl)methanesulfonamide], the concentration for 50% growth inhibition (GI50) in test [1] fell in the range of 0.1 to 0.5 µM; in test [2], 0.5 to 2 µM; in the test with parental Ba/F3 cell line it was 2 to 10 µM; in test [3], 0.025 to 0.1 µM.

Consider `COc1nc(N2CCC(N3CCN(C)CC3)CC2)c(C)cc1Nc1ncc(Cl)c(Nc2ccc3nccnc3c2P(C)(C)=O)n1` [Example 122, (6-((5-chloro-2-((2-methoxy-5-methyl-6-(4-(4-methylpiperazin-1-yl)piperidin-1-yl)pyridin-3-yl)amino)pyrimidin-4-yl)amino)quinoxalin-5-yl)dimethylphosphine oxide], for which the concentration for 50% growth inhibition (GI50) in test [1] was in the range of 0.025 to 0.1 µM; in test [2], 0.1 to 0.5 µM; with parental Ba/F3 cell line, 0.5 to 2 µM; in test [3] it was 0.1 to 0.5 µM.

As for `COc1cc(N2CCC(N3CCN(C)CC3)CC2)c(C)cc1Nc1ncc(Br)c(Nc2cc(Cl)ccc2-c2cnn[nH]2)n1` [Example 187], the 50% growth inhibitory concentration (GI50) lay in the range of 0.025 to 0.1 µM in test [1], 0.1 to 0.5 µM in test [2], 0.5 to 2 µM in the test on parental Ba/F3 cell line and 0.025 to 0.1 µM in test [3].

In the case of `COc1nc(N2CCC(F)(F)CC2)ccc1Nc1ncc(Br)c(Nc2ccc(F)cc2NS(C)(=O)=O)n1` [Example 33, N-(2-((5-Bromo-2-((6-(4,4-difluoropiperidin-1-yl)-2-methoxypyridin-3-yl)amino)pyrimidin-4-yl)amino)-5-fluorophenyl)methanesulfonamide], the 50% growth inhibitory concentration (GI50) (in test [1]; in test [2]; in the test on parental Ba/F3 cell line; in test [3]) was 2 to 10 µM each time.

Turning to `COc1cc(N2CCC(N3CCN(C)CC3)CC2)c(Cl)cc1Nc1ncc(Cl)c(N(c2ccc3scnc3c2NS(C)(=O)=O)S(C)(=O)=O)n1` [Example 114, N-(5-chloro-2-((5-chloro-2-methoxy-4-(4-(4-methylpiperazin-1-yl)piperidin-1-yl)phenyl)amino)pyrimidin-4-yl)-N-(4-(methylsulfonamido)benzo[d]thiazol-5-yl)methanesulfonamide], the GI50 in test [1] is 0.1 to 0.5 µM; in test [2] it was 0.5 to 2 µM; in the test on parental Ba/F3 cell line, 0.5 to 2 µM; in test [3], 0.1 to 0.5 µM.

Turning to `COc1cc(N2CCC(N3CCN(C)CC3)CC2)c(F)cc1Nc1ncc(Br)c(Nc2ccc(F)cc2NS(C)(=O)=O)n1` [Example 146, N-(2-((5-bromo-2-((5-fluoro-2-methoxy-4-(4-(4-methylpiperazin-1-yl)piperidin-1-yl)phenyl)amino)pyrimidin-4-yl)amino)-5-fluorophenyl)methanesulfonamide], the concentration for 50% growth inhibition (GI50) in test [1] was 0.1 to 0.5 µM; in test [2] it was 0.5 to 2 µM; in the test on parental Ba/F3 cell line it was 2 to 10 µM; in test [3], 0.1 to 0.5 µM.

As to `COc1nc(N2CCC(N3CCN(C)CC3)CC2)c(C)cc1Nc1ncc(Cl)c(Nc2cc(Cl)ccc2NC(C)=O)n1` [Example 66, N-(4-chloro-2-((5-chloro-2-((2-methoxy-5-methyl-6-(4-(4-methylpiperazin-1-yl)piperidin-1-yl)pyridin-3-yl)amino)pyrimidin-4-yl)amino)phenyl)acetamide], the GI50 in test [1] fell in the range of 0.1 to 0.5 µM; in test [2], 0.5 to 2 µM; in the test on parental Ba/F3 cell line it was 2 to 10 µM; in test [3], 0.5 to 2 µM.

On to `COc1nc(N2CCC(C)(C)CC2)ccc1Nc1ncc(Br)c(Nc2ccc(F)cc2NS(C)(=O)=O)n1` [Example 32, N-(2-((5-bromo-2-((6-(4,4-dimethylpiperidin-1-yl)-2-methoxypyridin-3-yl)amino)pyrimidin-4-yl)amino)-5-fluorophenyl)methanesulfonamide], for which the 50% growth inhibitory concentration (GI50) (in test [1]; in test [2]; with parental Ba/F3 cell line; in test [3]) was 2 to 10 µM throughout.

In the case of `COc1cc(N2CCC(N3CCN(C)CC3)CC2)c(C)cc1Nc1ncc(Cl)c(N(C)c2cc(Cl)c(Cl)cc2N(C)C(C)=O)n1` [Example 78, N-(4,5-dichloro-2-((5-chloro-2-((2-methoxy-5-methyl-4-(4-(4-methylpiperazin-1-yl)piperidin-1-yl)phenyl)amino)pyrimidin-4-yl)(methyl)amino)phenyl)-N-methylacetamide], the GI50 (in test [1]; in test [2]; in the test with parental Ba/F3 cell line; in test [3]) was 2 to 10 µM throughout.

For the molecule `COc1cc(N2CCC(N3CCN(C)CC3)CC2)c(C)cc1Nc1ncc(Cl)c(Nc2cc(Cl)c(Cl)cc2NC(C)=O)n1` [Example 71, N-(4,5-dichloro-2-((5-chloro-2-((2-methoxy-5-methyl-4-(4-(4-methylpiperazin-1-yl)piperidin-1-yl)phenyl)amino)pyrimidin-4-yl)amino)phenyl)acetamide], the concentration for 50% growth inhibition (GI50) in test [1] was 0.1 to 0.5 µM; in test [2], 0.1 to 0.5 µM; with parental Ba/F3 cell line, 0.5 to 2 µM; in test [3], 0.1 to 0.5 µM.

Take `CN1CCN(C2CCN(c3ccc(Nc4ncc(Cl)c(Nc5cc(Cl)ccc5NS(C)(=O)=O)n4)cc3F)CC2)CC1` [Example 84, N-(4-chloro-2-((5-chloro-2-((3-fluoro-4-(4-(4-methylpiperazin-1-yl)piperidin-1-yl)phenyl)amino)pyrimidin-4-yl)amino)phenyl)methanesulfonamide]: the concentration for 50% growth inhibition (GI50) is 0.1 to 0.5 µM in test [1], 0.1 to 0.5 µM in test [2], 0.5 to 2 µM in the test on parental Ba/F3 cell line and 0.1 to 0.5 µM in test [3].

For `COc1cc(N2CCC(N3CCN(C4CC4)CC3)CC2)c(C)cc1Nc1ncc(Cl)c(Nc2cc(C(F)(F)F)ccc2NS(C)(=O)=O)n1` [Example 139, N-(2-((5-chloro-2-((4-(4-(4-cyclopropylpiperazin-1-yl)piperidin-1-yl)-2-methoxy-5-methylphenyl)amino)pyrimidin-4-yl)amino)-4-(trifluoromethyl)phenyl)methanesulfonamide], the 50% growth inhibitory concentration (GI50) in test [1] lay in the range of 0.5 to 2 µM; in test [2], 2 to 10 µM; in the test on parental Ba/F3 cell line, 0.5 to 2 µM; in test [3], 0.5 to 2 µM.

For the molecule `COc1cc(N2CCC(N3CCN(C)CC3)CC2)c(Cl)cc1Nc1ncc(Cl)c(Nc2cc(C(F)(F)F)ccc2NS(C)(=O)=O)n1` [Example 137, N-(2-((5-chloro-2-((5-chloro-2-methoxy-4-(4-(4-methylpiperazin-1-yl)piperidin-1-yl)phenyl)amino)pyrimidin-4-yl)amino)-4-(trifluoromethyl)phenyl)methanesulfonamide], the concentration for 50% growth inhibition (GI50) in test [1] lay within 0.1 to 0.5 µM; in test [2] it was 0.5 to 2 µM; in the test on parental Ba/F3 cell line, 2 to 10 µM; in test [3] it was 0.1 to 0.5 µM.

As for `COc1cc(N2CCN(C)CC2)ccc1Nc1ncc(Cl)c(Nc2ccc3ncccc3c2NS(C)(=O)=O)n1` [Example 119, N-(6-((5-chloro-2-((2-methoxy-4-(4-methylpiperazin-1-yl)phenyl)amino)pyrimidin-4-yl)amino)quinolin-5-yl)methanesulfonamide], the GI50 lay in the range of 0.5 to 2 µM in test [1], 0.5 to 2 µM in test [2], 2 to 10 µM in the test with parental Ba/F3 cell line and 0.5 to 2 µM in test [3].

With `COc1cc(N2CCC(N3CCN(C)CC3)CC2)c(C)cc1Nc1ncc(Cl)c(Nc2cc(C(F)(F)F)ccc2NS(C)(=O)=O)n1` [Example 138, N-(2-((5-chloro-2-((2-methoxy-5-methyl-4-(4-(4-methylpiperazin-1-yl)piperidin-1-yl)phenyl)amino)pyrimidin-4-yl)amino)-4-(trifluoromethyl)phenyl)methanesulfonamide], the GI50 is 0.1 to 0.5 µM in test [1], 2 to 10 µM in test [2], 0.5 to 2 µM in the test on parental Ba/F3 cell line and 0.1 to 0.5 µM in test [3].

For `COc1cc(N2CCC(N3CCN(C)CC3)CC2)c(Cl)cc1Nc1ncc(Cl)c(Nc2cc(Cl)ccc2-c2cnn[nH]2)n1` [Example 186], the GI50 was 0.025 to 0.1 µM in test [1], 0.025 to 0.1 µM in test [2], 0.1 to 0.5 µM in the test with parental Ba/F3 cell line and 0.025 to 0.1 µM in test [3].

Consider `COc1nc(N2CCC(N3CCOCC3)CC2)ccc1Nc1ncc(Br)c(Nc2ccc(F)cc2NS(C)(=O)=O)n1` [Example 31, N-(2-((5-bromo-2-((2-methoxy-6-(4-morpholinopiperidin-1-yl)pyridin-3-yl)amino)pyrimidin-4-yl)amino)-5-fluorophenyl)methanesulfonamide], for which the concentration for 50% growth inhibition (GI50) in test [1] was 2 to 10 µM; in test [2], 2 to 10 µM; with parental Ba/F3 cell line, 2 to 10 µM; in test [3] it was 0.5 to 2 µM.

Consider `COc1cc(N2CCC(N3CCC(N(C)C)C3)CC2)c(C)cc1Nc1ncc(Br)c(Nc2cc(Cl)ccc2NS(C)(=O)=O)n1` (stereo not shown) [Example 91, N-(2-((5-bromo-2-((4-(4-(3-(dimethylamino)pyrrolidin-1-yl)piperidin-1-yl)-2-methoxy-5-methylphenyl)amino)pyrimidin-4-yl)amino)-4-chlorophenyl)methanesulfonamide], for which the GI50 in test [1] lay within 0.025 to 0.1 µM; in test [2] it was 0.1 to 0.5 µM; in the test on parental Ba/F3 cell line, 2 to 10 µM; in test [3], 0.001 to 0.025 µM.
